# The source made the active and inactive calls.
# How the values were obtained:
# [1] = molecular target: Disintegrin and metalloproteinase domain-containing protein 17 (Homo sapiens, UniProt P78536); experiment: inhibition of ADAM17 substrate cleavage – biochemical, quenched FRET substrate, counter-screen for ADAM10 exosite inhibitor project, dose response (AID 743253)
# [2] = potency of ADAM10 substrate cleavage blockers – biochemical, QFRET, dose response (AID 743254);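 also: ADAM10 enzyme with the DM2 quenched FRET peptide as substrate; EDANS fluorescence gain as the protease cuts the substrate; inhibitor potency against ADAM10 proteolytic activity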
# [3] = HIV-1 Vif–A3G interaction blockers – biochemical, TR-FRET, GST-Vif 1-94, biotin-A3G peptide, dose response retest, primary screen (AID 1117319); type: functional;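 also: TR-FRET signal of purified GST-Vif binding a biotinylated A3G peptide; inhibitors lower the FRET signal by blocking Vif and A3G binding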
# [4] = blockers of bursicon-stimulated LGR2 cAMP reporter – cell-based, HEK293, CRE-luciferase reporter, cherry pick, set 2, dose response (AID 743343); type: functional;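 also: transfected cells were stimulated with diluted bursicon conditioned medium after compound addition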
# [5] = A549 cell cytotoxicity, dose response, cytotoxicity control, plate reader, cherry-pick, antagonist series (AID 743412); type: functional, cell-based
# [6] = toxicity toward HepG2 liver cells – cell-based, plate reader, cherry-pick, antagonist series, cytotoxicity control, dose response (AID 743416); type: functional
# [7] = molecular target: T1, DNA repair protein RAD52 homolog (Homo sapiens, UniProt P43351); type: functional, biochemical
# T1 sequence (P43351 whole entry): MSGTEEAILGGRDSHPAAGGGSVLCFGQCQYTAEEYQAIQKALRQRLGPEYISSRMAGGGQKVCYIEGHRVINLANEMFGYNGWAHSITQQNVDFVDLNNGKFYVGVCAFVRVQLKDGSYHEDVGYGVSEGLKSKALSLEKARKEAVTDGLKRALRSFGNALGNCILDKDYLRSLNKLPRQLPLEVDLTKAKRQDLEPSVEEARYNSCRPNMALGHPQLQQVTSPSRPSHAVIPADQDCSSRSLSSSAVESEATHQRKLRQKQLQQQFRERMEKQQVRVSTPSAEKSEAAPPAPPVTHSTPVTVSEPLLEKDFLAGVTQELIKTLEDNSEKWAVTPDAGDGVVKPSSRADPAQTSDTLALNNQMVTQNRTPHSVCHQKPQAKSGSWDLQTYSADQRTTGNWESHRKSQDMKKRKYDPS
# [8] = viability loss in HEK293 cells – cell-based, plate reader, cherry-picked samples, cytotoxicity control, dose response (AID 743446); type: functional
# [9] = NIH3T3 cell viability loss – ATP luminescence, mouse fibroblasts, counter-screen, dose response (AID 2010); type: functional, cell-based;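 also: cells exposed to compound for about 90 hours before reading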
# [10] = Trypanosoma cruzi growth suppression in host cells – NIH3T3 host cells, beta-gal luminescence, confirmation (AID 2044); type: functional, cell-based;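 also: intracellular parasites grown in NIH/3T3 mouse fibroblasts as host cells; luminescent beta-galactosidase reporter signal from transgenic T. cruzi replicating inside host cells; inhibitors lower the luminescence signal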
# Estrogen receptor beta = Estrogen receptor beta (Homo sapiens, UniProt Q92731);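 also: recombinant ER-beta bound to coactivator SRC1 peptide in presence of estradiol agonist; inhibitors block coactivator peptide binding and lower the FRET signal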
# [11] = fluconazole-exposed Candida albicans growth modulators – fluorescence, retest, confirmation (AID 2467); type: functional, cell-based
# [12] = NIH-3T3 fibroblast cytotoxicity, dose response, cytotoxicity control, cell-based, fluorescence, Alamar Blue, secondary assay (AID 2327); type: functional;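 also: NIH-3T3 mouse fibroblasts cultured with fluconazole at 8 µg/mL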
# INS1 = experiment: INS-1E survival protection against cytokine death – cell-based, luminescence, retest, dose response (AID 449756); type: functional; settings: Rattus norvegicus;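 also: cell death triggered by IL-1 beta plus TNF-alpha plus IFN-gamma mixture; protective hits raise ATP signal compared with cytokine alone wells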
# [13] = IGROV1 cell killing – plate reader, dry powder samples, PAX8 inhibitor project, dose response (AID 743043); type: functional, cell-based; settings: IGROV-1
# Paired box protein Pax-8 = Paired box protein Pax-8 (Homo sapiens, UniProt Q06710); experiment: PAX8 transcriptional activity inhibition in RMG-I – RMG-I cells, luciferase, cherry-pick, dose response (AID 687027); type: functional, cell-based;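 also: luciferase reporter driven by Pax8 target thyroperoxidase promoter measured by SteadyGlo luminescence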
# [14] = molecular target: T2, Oxysterols receptor LXR-beta (Homo sapiens, UniProt P55055); experiment: LXR agonists, Gal4 luciferase reporter, dose response, counter-screen for ssDAF-12 agonist project, cell-based, luminescence, HEK293, S. stercoralis campaign (AID 720737); type: functional; settings: read-out: IC50 (the source's name)
# T2 sequence (P55055 whole entry): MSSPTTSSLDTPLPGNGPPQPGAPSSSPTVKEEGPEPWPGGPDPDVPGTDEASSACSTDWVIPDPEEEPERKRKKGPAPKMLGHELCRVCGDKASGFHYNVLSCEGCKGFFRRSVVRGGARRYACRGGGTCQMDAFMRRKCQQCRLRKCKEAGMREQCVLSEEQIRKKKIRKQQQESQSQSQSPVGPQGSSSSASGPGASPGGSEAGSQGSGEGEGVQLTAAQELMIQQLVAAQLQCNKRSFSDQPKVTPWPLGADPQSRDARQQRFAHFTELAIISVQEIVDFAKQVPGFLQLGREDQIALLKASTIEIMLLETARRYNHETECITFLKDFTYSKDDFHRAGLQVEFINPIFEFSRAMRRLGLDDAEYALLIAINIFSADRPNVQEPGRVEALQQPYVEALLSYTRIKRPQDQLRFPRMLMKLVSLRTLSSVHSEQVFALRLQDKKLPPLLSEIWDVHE
# [15] = Luminescence-based cell-based high throughput dose response assay to identify activators of the DAF-12 from the parasite S. stercoralis (ssDAF-12).; type: functional
# [16] = A cytotoxicity screen of small molecule inhibitors of the PhoP region in Salmonella typhi identified in the primary screen. [Related pubchem assays: 1850, 1864, 1985 ]; type: functional
# Large T antigen = Large T antigen (Simian virus 40, UniProt P03070); type: functional, Betapolyomavirus macacae;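 also: Confirmatory-stage PubChem screen for compounds that inhibit SV40 T antigen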
# [17] = viability of uninfected HEp-2 cells – cell-based, HTS, cytotoxicity control for RSV inhibitor project, dose response (AID 2410); type: functional; settings: human respiratory syncytial virus
# Estrogen receptor = molecular target: T3, Estrogen receptor (Homo sapiens, UniProt P03372);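 also: potency for inhibiting coactivator peptide recruitment to the receptor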
# T3 sequence (P03372 whole entry): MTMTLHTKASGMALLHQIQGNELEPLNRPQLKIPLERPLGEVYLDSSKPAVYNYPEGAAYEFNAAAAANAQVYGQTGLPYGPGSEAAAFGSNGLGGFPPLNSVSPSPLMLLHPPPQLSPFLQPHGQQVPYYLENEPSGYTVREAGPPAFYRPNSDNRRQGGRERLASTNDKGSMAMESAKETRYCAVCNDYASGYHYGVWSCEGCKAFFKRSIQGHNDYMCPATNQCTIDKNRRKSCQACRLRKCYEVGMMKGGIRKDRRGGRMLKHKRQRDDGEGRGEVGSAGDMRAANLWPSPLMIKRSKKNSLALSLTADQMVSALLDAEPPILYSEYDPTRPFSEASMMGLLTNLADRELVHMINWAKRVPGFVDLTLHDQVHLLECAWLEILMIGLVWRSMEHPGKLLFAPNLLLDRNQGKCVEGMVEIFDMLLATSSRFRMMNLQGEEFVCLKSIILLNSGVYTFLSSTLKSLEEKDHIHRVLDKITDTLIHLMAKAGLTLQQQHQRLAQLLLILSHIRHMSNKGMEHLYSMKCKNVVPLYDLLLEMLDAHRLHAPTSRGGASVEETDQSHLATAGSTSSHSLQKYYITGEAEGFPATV
# [18] = growth inhibition of PfATP4-mutant resistant parasites – NITD609-resistant line, SYBR Green, dry powder, dose response (AID 1159571); type: functional, cell-based;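 also: parasites synchronized at ring stage by sorbitol before testing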
# [19] = blockers of HIV-1 envelope-mediated cell-cell fusion – cherry-pick, dose response (AID 652057); type: functional, cell-based
# [20] = HIV-1 AD8 envelope cell-cell fusion blockers – cherry-pick, dose response (AID 652062); type: functional, cell-based;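 also: luciferase signal from cell-cell fusion driven by HIV-1 clade B AD8 Env; potency is for inhibitors of fusion seen as a drop in luminescence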
# [21] = Dd2 malaria parasite growth inhibition potency – SYBR Green, dry powder samples, dose response (AID 1159566); type: functional, cell-based;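 also: potency for growth inhibition with lower SYBR green DNA signal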
# [22] = P. falciparum Dd2 growth inhibitors, dose response, SYBR Green, cherry-picked samples (AID 1159567); type: functional, cell-based
# [23] = blockers of HIV-1 ZM109 envelope-driven cell-cell fusion – HeLa effector, CEM target cells, luciferase, cherry-pick, dose response (AID 652058); type: functional, cell-based;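 also: luciferase signal from HIV-1 Env mediated cell-cell fusion of effector and target cells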
# [24] = growth inhibition of yeast DHODH-expressing 3D7 parasites – SYBR Green, dry powder samples, dose response (AID 1159570); type: functional, cell-based;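 also: parasite growth measured after 72 hours of compound exposure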
# [25] = molecular target: T4, Voltage-gated N-type calcium channel alpha-1B subunit/Amyloid beta A4 precursor protein-binding family A member 1 (Homo sapiens, UniProt Q00975+Q02410); type: protein assay
# [26] = molecular target: T4, Voltage-gated N-type calcium channel alpha-1B subunit/Amyloid beta A4 precursor protein-binding family A member 1; type: protein assay; remark: listed apart in the source
# [27] = molecular target: Induced myeloid leukemia cell differentiation protein Mcl-1 (Homo sapiens, UniProt Q07820); type: functional
# [28] = molecular target: FAD-linked sulfhydryl oxidase ALR (Homo sapiens, UniProt P55789); experiment: ALR-catalysed DTT oxidation blockers – biochemical, H2O2 detection, luminescence, cherry-pick, dose response (AID 493248)
# Sequence of Disintegrin and metalloproteinase domain-containing protein 17 (P78536 whole entry, the tested form may be a part): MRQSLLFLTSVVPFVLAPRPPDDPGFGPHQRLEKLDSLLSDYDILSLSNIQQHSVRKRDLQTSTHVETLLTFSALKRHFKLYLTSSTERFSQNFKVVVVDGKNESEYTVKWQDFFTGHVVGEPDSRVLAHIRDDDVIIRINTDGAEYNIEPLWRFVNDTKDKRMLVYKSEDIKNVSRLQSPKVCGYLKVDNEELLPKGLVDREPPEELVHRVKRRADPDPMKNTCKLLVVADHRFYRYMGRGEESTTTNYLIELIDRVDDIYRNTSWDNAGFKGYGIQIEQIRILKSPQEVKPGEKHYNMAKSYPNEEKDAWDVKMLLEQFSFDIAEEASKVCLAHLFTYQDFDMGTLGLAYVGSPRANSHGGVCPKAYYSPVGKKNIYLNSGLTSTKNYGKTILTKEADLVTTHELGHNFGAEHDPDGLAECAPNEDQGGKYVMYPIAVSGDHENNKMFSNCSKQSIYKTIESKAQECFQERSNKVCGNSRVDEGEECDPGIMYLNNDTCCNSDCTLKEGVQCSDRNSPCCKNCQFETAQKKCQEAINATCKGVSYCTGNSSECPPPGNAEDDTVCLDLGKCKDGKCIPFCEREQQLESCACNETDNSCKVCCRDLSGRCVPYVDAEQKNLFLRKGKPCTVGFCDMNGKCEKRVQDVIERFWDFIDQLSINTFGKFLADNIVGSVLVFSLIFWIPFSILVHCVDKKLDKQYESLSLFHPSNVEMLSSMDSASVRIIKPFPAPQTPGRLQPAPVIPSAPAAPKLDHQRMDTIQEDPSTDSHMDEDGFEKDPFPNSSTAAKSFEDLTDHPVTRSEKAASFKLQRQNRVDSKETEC
# Sequence of Estrogen receptor beta (Q92731 whole entry): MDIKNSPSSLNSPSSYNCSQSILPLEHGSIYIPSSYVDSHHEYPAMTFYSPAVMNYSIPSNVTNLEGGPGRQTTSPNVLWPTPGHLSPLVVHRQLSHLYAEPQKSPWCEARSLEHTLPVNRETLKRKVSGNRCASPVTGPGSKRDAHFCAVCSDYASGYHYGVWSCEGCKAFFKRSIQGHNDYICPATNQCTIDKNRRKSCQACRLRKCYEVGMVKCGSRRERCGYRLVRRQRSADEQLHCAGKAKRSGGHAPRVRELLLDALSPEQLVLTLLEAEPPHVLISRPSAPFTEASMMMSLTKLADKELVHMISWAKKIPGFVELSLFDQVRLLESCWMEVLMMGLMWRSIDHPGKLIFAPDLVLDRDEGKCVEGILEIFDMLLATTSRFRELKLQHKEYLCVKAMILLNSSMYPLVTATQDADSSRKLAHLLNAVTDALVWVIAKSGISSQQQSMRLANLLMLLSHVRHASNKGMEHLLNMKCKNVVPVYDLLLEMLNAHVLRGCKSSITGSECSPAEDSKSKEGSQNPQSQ
# T4 sequence (Q00975 whole entry): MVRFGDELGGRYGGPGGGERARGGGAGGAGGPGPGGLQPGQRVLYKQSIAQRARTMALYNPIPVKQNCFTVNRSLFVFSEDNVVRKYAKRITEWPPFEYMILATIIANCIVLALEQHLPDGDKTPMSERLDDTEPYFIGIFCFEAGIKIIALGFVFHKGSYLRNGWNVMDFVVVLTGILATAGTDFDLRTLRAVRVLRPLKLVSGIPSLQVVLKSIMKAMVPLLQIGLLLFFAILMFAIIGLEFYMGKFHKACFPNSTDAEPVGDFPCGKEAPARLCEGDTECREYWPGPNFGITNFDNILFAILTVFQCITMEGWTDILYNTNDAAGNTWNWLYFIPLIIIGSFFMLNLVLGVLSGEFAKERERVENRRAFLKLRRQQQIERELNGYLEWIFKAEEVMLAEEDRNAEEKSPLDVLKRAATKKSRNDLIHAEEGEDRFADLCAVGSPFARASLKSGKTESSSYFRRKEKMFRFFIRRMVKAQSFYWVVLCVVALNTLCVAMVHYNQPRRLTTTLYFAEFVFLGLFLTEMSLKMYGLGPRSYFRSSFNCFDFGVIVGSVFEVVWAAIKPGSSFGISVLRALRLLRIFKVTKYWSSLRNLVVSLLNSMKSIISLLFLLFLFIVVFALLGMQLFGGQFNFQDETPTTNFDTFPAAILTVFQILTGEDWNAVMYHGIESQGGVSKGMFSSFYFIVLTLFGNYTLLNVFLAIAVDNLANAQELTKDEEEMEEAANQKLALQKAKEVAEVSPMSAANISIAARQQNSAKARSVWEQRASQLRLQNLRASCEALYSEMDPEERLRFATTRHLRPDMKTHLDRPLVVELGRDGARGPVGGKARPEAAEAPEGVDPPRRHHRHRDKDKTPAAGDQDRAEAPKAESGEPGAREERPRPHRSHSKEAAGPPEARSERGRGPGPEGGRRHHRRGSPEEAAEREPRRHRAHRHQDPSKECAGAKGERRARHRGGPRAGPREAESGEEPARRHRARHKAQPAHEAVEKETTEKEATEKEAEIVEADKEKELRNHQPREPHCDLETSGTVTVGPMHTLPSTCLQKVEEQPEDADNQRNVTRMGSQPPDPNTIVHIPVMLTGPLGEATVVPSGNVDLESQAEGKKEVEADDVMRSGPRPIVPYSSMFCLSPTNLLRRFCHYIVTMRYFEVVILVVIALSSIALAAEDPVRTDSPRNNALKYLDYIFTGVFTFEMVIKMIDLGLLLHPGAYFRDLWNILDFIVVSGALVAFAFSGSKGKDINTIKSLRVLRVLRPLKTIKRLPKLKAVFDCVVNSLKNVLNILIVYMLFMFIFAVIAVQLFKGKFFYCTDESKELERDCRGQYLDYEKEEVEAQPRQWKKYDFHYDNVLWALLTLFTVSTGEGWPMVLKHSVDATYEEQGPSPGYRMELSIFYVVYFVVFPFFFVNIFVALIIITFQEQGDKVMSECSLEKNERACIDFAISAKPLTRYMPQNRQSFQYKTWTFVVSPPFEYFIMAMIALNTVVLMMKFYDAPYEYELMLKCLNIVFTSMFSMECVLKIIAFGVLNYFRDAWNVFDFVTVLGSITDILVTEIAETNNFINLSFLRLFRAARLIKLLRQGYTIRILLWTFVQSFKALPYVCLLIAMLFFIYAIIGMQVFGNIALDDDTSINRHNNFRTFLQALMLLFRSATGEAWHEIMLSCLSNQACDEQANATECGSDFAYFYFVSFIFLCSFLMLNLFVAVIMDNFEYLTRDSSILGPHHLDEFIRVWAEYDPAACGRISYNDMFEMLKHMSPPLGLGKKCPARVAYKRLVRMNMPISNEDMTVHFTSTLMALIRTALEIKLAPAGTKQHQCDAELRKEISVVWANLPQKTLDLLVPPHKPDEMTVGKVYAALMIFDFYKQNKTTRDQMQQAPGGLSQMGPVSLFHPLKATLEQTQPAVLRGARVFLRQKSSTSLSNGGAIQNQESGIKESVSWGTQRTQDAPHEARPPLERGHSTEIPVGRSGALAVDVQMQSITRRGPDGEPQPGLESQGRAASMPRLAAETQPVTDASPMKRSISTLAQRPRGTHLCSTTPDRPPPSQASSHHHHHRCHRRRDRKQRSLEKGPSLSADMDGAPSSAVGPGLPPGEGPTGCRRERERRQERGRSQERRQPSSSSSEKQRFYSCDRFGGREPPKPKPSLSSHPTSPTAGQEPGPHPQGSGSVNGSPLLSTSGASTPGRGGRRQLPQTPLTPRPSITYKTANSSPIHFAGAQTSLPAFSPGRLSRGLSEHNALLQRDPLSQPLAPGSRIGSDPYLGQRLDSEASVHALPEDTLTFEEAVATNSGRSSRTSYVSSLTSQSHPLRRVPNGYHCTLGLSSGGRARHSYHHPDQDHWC
# T4 sequence (Q02410 whole entry): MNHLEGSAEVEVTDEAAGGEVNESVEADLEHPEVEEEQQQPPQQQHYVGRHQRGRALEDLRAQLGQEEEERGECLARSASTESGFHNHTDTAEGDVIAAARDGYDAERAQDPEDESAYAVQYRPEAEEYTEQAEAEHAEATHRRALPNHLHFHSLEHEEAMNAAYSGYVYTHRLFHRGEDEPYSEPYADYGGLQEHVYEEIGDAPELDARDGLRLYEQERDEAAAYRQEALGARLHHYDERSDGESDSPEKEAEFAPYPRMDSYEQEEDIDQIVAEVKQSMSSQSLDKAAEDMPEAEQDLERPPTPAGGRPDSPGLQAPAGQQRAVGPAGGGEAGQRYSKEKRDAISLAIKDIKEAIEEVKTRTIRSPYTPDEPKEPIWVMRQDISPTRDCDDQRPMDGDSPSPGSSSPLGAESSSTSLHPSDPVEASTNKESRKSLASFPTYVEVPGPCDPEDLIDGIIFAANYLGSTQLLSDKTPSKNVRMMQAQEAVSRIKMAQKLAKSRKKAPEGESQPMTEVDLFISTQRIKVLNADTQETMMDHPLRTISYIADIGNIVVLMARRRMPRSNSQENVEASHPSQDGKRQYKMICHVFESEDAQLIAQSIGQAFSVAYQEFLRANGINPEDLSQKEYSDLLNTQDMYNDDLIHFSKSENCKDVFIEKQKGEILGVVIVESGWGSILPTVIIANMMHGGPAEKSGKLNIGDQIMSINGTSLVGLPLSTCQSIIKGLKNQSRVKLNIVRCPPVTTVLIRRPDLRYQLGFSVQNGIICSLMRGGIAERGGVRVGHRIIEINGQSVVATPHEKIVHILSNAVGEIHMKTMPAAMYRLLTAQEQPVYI
# Sequence of Paired box protein Pax-8 (Q06710 whole entry, the tested form may be a part): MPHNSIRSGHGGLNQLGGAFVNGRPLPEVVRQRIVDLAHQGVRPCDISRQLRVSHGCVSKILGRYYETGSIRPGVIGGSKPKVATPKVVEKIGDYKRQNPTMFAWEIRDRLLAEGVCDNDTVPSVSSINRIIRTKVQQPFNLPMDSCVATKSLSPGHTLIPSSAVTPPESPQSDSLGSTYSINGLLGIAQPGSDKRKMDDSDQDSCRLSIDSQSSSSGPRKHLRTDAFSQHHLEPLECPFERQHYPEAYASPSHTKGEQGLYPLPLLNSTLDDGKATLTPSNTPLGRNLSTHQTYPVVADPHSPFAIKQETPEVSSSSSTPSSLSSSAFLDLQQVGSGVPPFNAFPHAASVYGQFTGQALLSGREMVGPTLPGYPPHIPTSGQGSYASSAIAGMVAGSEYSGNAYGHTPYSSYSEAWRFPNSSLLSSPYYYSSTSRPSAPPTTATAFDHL
structure (smiles),measurement,setting,value
COc1ccc(-n2c(Cc3cccs3)nnc2SCC(=O)Nc2ccc(OCc3ccccc3)cc2)cc1,IC50,[1],> 69.5 µM (inactive)
same,IC50,[2],> 69.5 µM (inactive)
COc1ccc(Cl)cc1N(CC(=O)Nc1ccc2c(c1)OCO2)S(C)(=O)=O,IC50,[3],> 100 µM (active)
O=C(CSc1nc2ccccc2[nH]1)Nc1nc(-c2cccc(Br)c2)cs1,AC50,[4],35.4 µM (active)
same,AC50,[5],24.2 µM (active)
same,IC50,[1],> 69.5 µM (inactive)
same,IC50,[2],> 69.5 µM (inactive)
same,AC50,[6],38.4 µM (active)
c1cc(OCCCN2CCCCC2)ccc1CN1CCCCC1 [JNJ-5207852],AC50,[7],10.3 µM (active)
COc1ccc2cc(C#N)c(Nc3cccc(F)c3)nc2c1,AC50,[5],> 52 µM (inactive)
same,AC50,[8],> 52 µM (inactive)
same,AC50,[6],> 52 µM (inactive)
O=C(Nc1ccon1)C12CC3CC(C1)CC(n1cnc([N+](=O)[O-])n1)(C3)C2,EC50,cells,0.088 µM (active)
same,EC50,[9],> 60 µM (not active)
same,EC50,[10],< 0.1 µM (active)
Nc1[nH]n(-c2ccccc2)c(=O)c1/N=N/c1ccccc1[N+](=O)[O-],IC50,Estrogen receptor beta,> 50 µM (not active)
Cc1cc(-c2ccccc2)cc(-c2ccccc2)[n+]1CCc1ccccc1.[O-][Cl+3]([O-])([O-])[O-],EC50,[11],2.98 µM (active)
same,EC50,cells,0.07 µM (active)
same,EC50,[9],> 60 µM (not active)
same,EC50,[12],> 160 µM (inactive)
same,EC50,[10],< 0.1 µM (active)
same,AC50,INS1,< 0.195 µM (active)
C[C@@H]1CCCCO[C@@H](CN(C)Cc2ccc(C(F)(F)F)cc2)[C@H](C)CN([C@H](C)CO)C(=O)c2cc(NC(=O)c3ccccc3)ccc2O1,AC50,[13],40.9 µM (active)
same,AC50,Paired box protein Pax-8,9.55 µM (active)
Clc1cccc(-c2nc3c4ccccc4ccn3c2Cc2ccsc2)c1,EC50,[14],> 67.6 µM (inactive)
same,IC50,[15],> 67.6 µM (inactive)
COc1cccc(NC(=O)CN(C)C(C)C(=O)Nc2ccc(S(=O)(=O)N3CCOCC3)cc2)c1 (stereo not given),EC50,[16],> 50 µM (active)
CCCNC(=O)C1CCN(c2ccc(S(=O)(=O)N3CCOCC3)cc2Cl)CC1,EC50,[16],> 50 µM (active)
CCN(CC)c1ccc(NC(=O)c2ccco2)cc1,IC50,Large T antigen,5.01 µM (active)
same,IC50,[3],> 100 µM (active)
COc1ccc(NC(=O)c2ccc(-c3ccccc3)cc2)cc1NS(=O)(=O)c1ccc(F)cc1,IC50,[1],> 69.5 µM (inactive)
same,IC50,[2],> 69.5 µM (inactive)
CCN(CC)CCCNC(=O)c1c(O)nc2c(c1O)CCCC2,EC50,[16],> 50 µM (active)
CC1CCN(C(=O)COc2ccc(Nc3ccccc3)cc2)CC1,EC50,[16],> 50 µM (active)
COCCCNc1nc2c(-c3ccc(C)cc3)nnn2c2ccccc12,EC50,[14],> 67.5 µM (inactive)
same,IC50,[15],> 67.5 µM (inactive)
COc1ccc(C2CC(c3cccs3)=NN2C(=O)CN2CCCCC2)cc1 (stereo not given),EC50,[14],> 67.5 µM (inactive)
same,IC50,[15],> 67.5 µM (inactive)
O=C(c1cccs1)N1N=C(c2ccccc2)CC1c1ccc(O)cc1 (stereo not given),IC50,[1],> 69.5 µM (inactive)
same,CC50,[17],24.2 µM (active)
same,IC50,[2],> 69.5 µM (inactive)
CCN1CCc2nc(N)sc2C1,AC50,[7],23.4 µM (active)
COCCOC(=O)c1[nH]c2c(c1C)C(=O)CC(c1ccco1)C2 (stereo not given),IC50,Estrogen receptor,19.5 µM (active)
C[C@@H](NC(=O)C[C@H]1C[C@@H]2c3cc(NS(=O)(=O)c4ccc(F)cc4)ccc3O[C@@H]2[C@H](CO)O1)c1ccccc1,AC50,[18],1.09 µM (active)
same,AC50,[19],1.12 µM (active)
same,AC50,[20],31.7 µM (active)
same,AC50,[21],1.4 µM (active)
same,AC50,[22],2.22 µM (active)
same,AC50,[23],3.32 µM (active)
same,AC50,[24],2.76 µM (active)
C[C@]12CCC(O)CC1=CCC1C2CC[C@]2(C)/C(=N\NC(N)=S)CCC12 (stereo not given in full),EC50,cells,0.103 µM (active)
same,EC50,[9],> 60 µM (not active)
same,EC50,[10],< 0.1 µM (active)
O=[N+]([O-])c1ccc(-c2c[nH]c(S)n2)cc1,IC50,[25],11.3 µM (active)
same,IC50,[26],> 50 µM (inactive)
same,IC50,[27],1.38 µM (active)
same,IC50,[3],> 100 µM (active)
same,AC50,[28],1.99 µM (active)
CCS(=O)(=O)c1ccc2oc(Nc3cccc(OC)c3)nc2c1,IC50,[3],> 100 µM (active)
CCN(CC)CCNC(=O)c1cc(Cl)c(N)cc1OC,IC50,Estrogen receptor beta,> 50 µM (not active)

# — ChEMBL document CHEMBL1201862, “PubChem BioAssay data set” (2004)
